Assay results as given in patent publication US20140242200A1, “WATER-SOLUBLE EXTRACTS OF ARTEMISIA DRACUNCULUS (TARRAGON) FOR IMPROVEMENT OF GLUCOSE METABOLISM” (Finzelberg GmbH & Co. KG, priority 2008, published 2014).

Assays:
[1] = system: Male non-fasted Wistar rats; assay: Basal blood glucose levels in rats (no glucose challenge); assay type: in vivo; conditions: oral treatment, extracts 6 mg/kg, blood samples 0-180 min, one-way ANOVA, Student-Newman-Keuls
Procedure: (§1) A common way of testing for an effect of extracts or new chemical entities on blood glucose levels is the glucose challenge test (Verspohl, E. J.: Recommended testing in diabetes research. Planta Med 68 (7): 581-90, 2002) in which rats are given the extract, control, or a known antidiabetic substance with (challenge) and without (basal) an intraperitoneal (i.p.) dose of glucose. The extracts are given orally 30 min. before the glucose challenge. Blood samples are taken sublingual at time points 0, 15, 30, 60, and 120 minutes for the glucose challenge or 0, 30, 60, 120, and 180 minutes for basal blood glucose levels. This sampling scheme ensures to monitor both effects of extracts on basal blood glucose levels over a longer time period and the blood glucose levels after glucose challenge closely enough. […]
(§2) Blood was drawn at the appropriate time points from the sublingual vein after a short halothane anesthesia and stored at 4° C. with addition of heparin. […] The supernatant plasma was taken and analyzed using an autoanalyzer (Merck, Darmstadt). […]
(§3) Both percent and AUC data were analyzed by one-way ANOVA and Student-Newman-Keuls Multiple Comparison Test using Graphpad 4.0 Software, San Diego, USA. The AUC (area under the curve) was calculated using the trapezoidal rule without extensions beyond the last time point measured.

[2] = system: Male non-fasted Wistar rats; assay: Glucose challenge test (i.p. glucose) in rats; assay type: in vivo; conditions: oral treatment 30 min before i.p. glucose; extracts 6 mg/kg; blood samples 0-120 min; one-way ANOVA, Student-Newman-Keuls
Procedure: as §1, §2, §3

Structure (SMILES) | effect on basal blood glucose levels [1] | effect on lowering the blood glucose levels following the i.p. glucose challenge [2]
N[C@@H](CC(=O)N1CCn2c(nnc2C(F)(F)F)C1)Cc1cc(F)c(F)cc1F [sitagliptin] | significant effect | significant effect
COc1ccc(Cl)cc1C(=O)NCCc1ccc(S(=O)(=O)NC(=O)NC2CCCCC2)cc1 [glyburide] | significant effect | significant effect
